Experimental findings from patent US9598446B2, “Amino compounds for treatment of complement mediated disorders” (priority 2014, dated 2017) are described below.

In this test the target is Human factor D (Homo sapiens (Human), UniProt P00746). Nature of the test: Human Factor D Assay. The class given is biochemical.
Where [1] appears, read: human factor D 80 nM, substrate Z-L-Lys-SBz1 and DTNB 100 μM each, pH 7.5, read-out: IC50.

Each structure is given as a SMILES string. Like-named read-outs stand apart in the source and are kept apart here.

Sequence of Human factor D (P00746 26-253): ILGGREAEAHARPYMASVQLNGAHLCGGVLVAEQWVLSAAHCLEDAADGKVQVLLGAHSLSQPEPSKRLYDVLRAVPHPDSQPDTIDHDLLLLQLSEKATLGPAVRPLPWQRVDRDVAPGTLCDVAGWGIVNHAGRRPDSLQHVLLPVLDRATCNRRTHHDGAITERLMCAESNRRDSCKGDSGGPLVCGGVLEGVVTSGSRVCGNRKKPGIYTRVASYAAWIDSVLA
Method: Human factor D (purified from human serum, Complement Technology, Inc.) at 80 nM final concentration is incubated with test compound at various concentrations for 5 minutes at room temperature in 50 mM Tris, 1M NaCl, pH 7.5. A synthetic substrate Z-L-Lys-SBz1 and DTNB (Ellman's reagent) are added to final concentrations of 100 μM each. The increase in color is recorded at OD405 nm in a microplate in kinetic mode over 30 minutes with 30 second time points in a spectrofluorimeter. IC50 values are calculated by non-linear regression from the percentage of inhibition of complement factor D activity as a function of test compound concentration.

`NC(=O)c1nn(CC(=O)N2C[C@H](F)C[C@H]2C(=O)Nc2cccc(-c3ccccc3Cl)c2F)c2ccc(Nc3cccnn3)cc12` [Compound 9, 1-(2-((2S,4R)-2-(2′-chloro-2-fluorobiphenyl-3-ylcarbamoyl)-4-fluoropyrrolidin-1-yl)-2-oxoethyl)-5-(pyridazin-3-ylamino)-1H-indazole-3-carboxamide]: the IC50 under setting [1] was less than 1000 nM.

Take `CC(=O)c1cn(CC(=O)N2C[C@H](F)C[C@H]2C(=O)Nc2cncc(Br)c2)c2ccc(Nc3cncnc3)cc12` [Compound 21, (2S,4R)-1-(2-(3-acetyl-5-(pyrimidin-5-ylamino)-1H-indol-1-yl)acetyl)-N-(5-bromopyridin-3-yl)-4-fluoropyrrolidine-2-carboxamide]: the IC50 under setting [1] is less than 1000 nM.

In the case of `CC(=O)c1cn(CC(=O)N2C[C@H](F)C[C@H]2C(=O)NCc2cccnc2)c2ccc(Nc3cncnc3)cc12` [Compound 43, (2S,4R)-1-(2-(3-acetyl-5-(pyrimidin-5-ylamino)-1H-indol-1-yl)acetyl)-4-fluoro-N-(pyridin-3-ylmethyl)pyrrolidine-2-carboxamide], the IC50 under setting [1] was less than 1000 nM.

Take `CC(=O)c1cn(CC(=O)N2C[C@H](F)C[C@H]2C(=O)N[C@H](CO)c2cccc(Cl)c2F)c2ccc(Nc3cncnc3)cc12` [Compound 7, (2S,4R)-1-(2-(3-acetyl-5-(pyrimidin-5-ylamino)-1H-indol-1-yl)acetyl)-N-((S)-1-(3-chloro-2-fluorophenyl)-2-hydroxyethyl)-4-fluoropyrrolidine-2-carboxamide]: the IC50 under setting [1] is less than 1000 nM.

In the case of `CC(=O)c1cn(CC(=O)N2C[C@H](F)C[C@H]2C(=O)Nc2cc3c(cc2F)OC(F)(F)O3)c2ccc(Nc3cncnc3)cc12` [Compound 35, (2S,4R)-1-(2-(3-acetyl-5-(pyrimidin-5-ylamino)-1H-indol-1-yl)acetyl)-4-fluoro-N-(2,2,6-trifluorobenzo[d][1,3]dioxol-5-yl)pyrrolidine-2-carboxamide], the IC50 under setting [1] was less than 1000 nM.

As for `CC(=O)c1cn(CC(=O)N2C[C@H](F)C[C@H]2C(=O)Nc2ccc3cn[nH]c3c2)c2ccc(Nc3cncnc3)cc12` [Compound 25, (2S,4R)-1-(2-(3-acetyl-5-(pyrimidin-5-ylamino)-1H-indol-1-yl)acetyl)-4-fluoro-N-(1H-indazol-6-yl)pyrrolidine-2-carboxamide], the IC50 under setting [1] was less than 1000 nM.

Take `CC(=O)c1cn(CC(=O)N2C[C@H](F)C[C@H]2C(=O)Nc2cc(C)nc3nc(C(F)(F)F)nn23)c2ccc(Nc3cncnc3)cc12` [Compound 41, (2S,4R)-1-(2-(3-acetyl-5-(pyrimidin-5-ylamino)-1H-indol-1-yl)acetyl)-4-fluoro-N-(5-methyl-2-(trifluoromethyl)-[1,2,4]triazolo[1,5-a]pyrimidin-7-yl)pyrrolidine-2-carboxamide]: the IC50 under setting [1] is greater than 10000 nM.

On to `CC(=O)c1cn(CC(=O)N2C[C@H](F)C[C@H]2C(=O)Nc2cncc(Br)n2)c2ccc(Nc3cncnc3)cc12` [Compound 47, (2S,4R)-1-(2-(3-acetyl-5-(pyrimidin-5-ylamino)-1H-indol-1-yl)acetyl)-N-(6-bromopyrazin-2-yl)-4-fluoropyrrolidine-2-carboxamide], for which the IC50 under setting [1] is less than 1000 nM.

On to `CC(=O)c1cn(CC(=O)N2C[C@H](F)C[C@H]2C(=O)Nc2ccc(OCc3ccccc3)cn2)c2ccc(Nc3cncnc3)cc12` [Compound 45, (2S,4R)-1-(2-(3-acetyl-5-(pyrimidin-5-ylamino)-1H-indol-1-yl)acetyl)-N-(5-(benzyloxy)pyridin-2-yl)-4-fluoropyrrolidine-2-carboxamide], for which, under setting [1], the IC50 is less than 1000 nM.

With `CC(=O)c1cn(CC(=O)N2C[C@H](F)C[C@H]2C(=O)Nc2ccc3[nH]c(C)c(C)c3c2)c2ccc(Nc3cncnc3)cc12` [Compound 38, (2S,4R)-1-(2-(3-acetyl-5-(pyrimidin-5-ylamino)-1H-indol-1-yl)acetyl)-N-(2,3-dimethyl-1H-indol-5-yl)-4-fluoropyrrolidine-2-carboxamide], the IC50 under setting [1] was less than 1000 nM.

`CC(=O)c1cn(CC(=O)N2C[C@H](F)C[C@H]2C(=O)Nc2ccccc2-c2nncn2C)c2ccc(Nc3cncnc3)cc12` [Compound 61, (2S,4R)-1-(2-(3-acetyl-5-(pyrimidin-5-ylamino)-1H-indol-1-yl)acetyl)-4-fluoro-N-(2-(4-methyl-4H-1,2,4-triazol-3-yl)phenyl)pyrrolidine-2-carboxamide]: under setting [1], the IC50 is greater than 10000 nM.

As for `CC(=O)c1cn(CC(=O)N2C[C@H](F)C[C@H]2C(=O)Nc2noc(-c3ccccc3Cl)n2)c2ccc(Nc3cncnc3)cc12` [Compound 62, (2S,4R)-1-(2-(3-acetyl-5-(pyrimidin-5-ylamino)-1H-indol-1-yl)acetyl)-N-(5-(2-chlorophenyl)-1,2,4-oxadiazol-3-yl)-4-fluoropyrrolidine-2-carboxamide], the IC50 under setting [1] was less than 1000 nM.

`CC(=O)c1cn(CC(=O)N2C[C@H](F)C[C@H]2C(=O)Nc2cccc(Cl)n2)c2ccc(Nc3cncnc3)cc12` [Compound 6, (2S,4R)-1-(2-(3-acetyl-5-(pyrimidin-5-ylamino)-1H-indol-1-yl)acetyl)-N-(6-chloropyridin-2-yl)-4-fluoropyrrolidine-2-carboxamide]: the IC50 under setting [1] is less than 1000 nM.

As to `CC(=O)c1cn(CC(=O)N2C[C@H](F)C[C@H]2C(=O)Nc2cccc(Cl)c2C(F)(F)F)c2ccc(Nc3cncnc3)cc12` [Compound 48, (2S,4R)-1-(2-(3-acetyl-5-(pyrimidin-5-ylamino)-1H-indol-1-yl)acetyl)-N-(3-chloro-2-(trifluoromethyl)-phenyl)-4-fluoropyrrolidine-2-carboxamide], under setting [1], the IC50 was less than 1000 nM.

As to `CC(=O)c1cn(CC(=O)N2C[C@H](F)C[C@H]2C(=O)Nc2cccc(-c3ccccc3Cl)c2F)c2ccc(Nc3cncnc3)cc12` [Compound 3, (2S,4R)-1-(2-(3-acetyl-5-(pyrimidin-5-ylamino)-1H-indol-1-yl)acetyl)-N-(2′-chloro-2-fluorobiphenyl-3-yl)-4-fluoropyrrolidine-2-carboxamide], the IC50 under setting [1] is less than 1000 nM.

Take `CC(=O)c1cn(CC(=O)N2C[C@H](F)C[C@H]2C(=O)NC2CCCN(c3ccccc3Cl)C2=O)c2ccc(Nc3cncnc3)cc12` (stereo partly drawn) [Compound 58, (2S,4R)-1-(2-(3-acetyl-5-(pyrimidin-5-ylamino)-1H-indol-1-yl)acetyl)-N-(1-(2-chlorophenyl)-2-oxopiperidin-3-yl)-4-fluoropyrrolidine-2-carboxamide]: the IC50 under setting [1] was less than 1000 nM.

With `CC(=O)c1cn(CC(=O)N2C[C@H](F)C[C@H]2C(=O)NCc2ccncc2)c2ccc(Nc3cncnc3)cc12` [Compound 59, (2S,4R)-1-(2-(3-acetyl-5-(pyrimidin-5-ylamino)-1H-indol-1-yl)acetyl)-4-fluoro-N-(pyridin-4-ylmethyl)pyrrolidine-2-carboxamide], the IC50 under setting [1] is less than 1000 nM.

`CC(=O)c1cn(CC(=O)N2C[C@H](F)C[C@H]2C(=O)Nc2ccccc2-n2nccc2C)c2ccc(Nc3cncnc3)cc12` [Compound 30, (2S,4R)-1-(2-(3-acetyl-5-(pyrimidin-5-ylamino)-1H-indol-1-yl)acetyl)-4-fluoro-N-(2-(5-methyl-1H-pyrazol-1-yl)phenyl)pyrrolidine-2-carboxamide] returned an IC50 of 1000 to 10000 nM.

What is called IC50 is the concentration that gives 50% inhibition.
